Experimental findings from patent US11667607B1 (ZYLORION HEALTH INC., priority 2022, dated 2023) are described below.

The nature of data set [1]: Exposure of solids to 2 days at 40° C./75% RH (AAC), remeasured by XRPD. The note with it: Table 1, lyophilization/recrystallization; ambient-dried solid after 2 days 40° C./75% RH; crystalline; pc = poor crystalline. The format is physicochemical.
The nature of data set [2]: Dynamic vapor sorption (DVS) moisture sorption isotherm, solid re-measured by HT-XRPD. The format is physicochemical. The procedure:
Moisture sorption isotherms were collected on a DVS Adventure system from Surface Measurement Systems (London, UK). Sample size was circa 10 mg of solid material. A full sorption and desorption isotherm was recorded by varying the relative humidity from 40-95-0-40% in steps of 10% at a constant temperature of 25° C. Weight equilibration per step was set at dm/dt of 0.002%/min. Afterwards the sample was measured by HT-XRPD.

Consider `CCc1cc(/C(C)=N/OCc2ccc(C3CCCCC3)c(C(F)(F)F)c2)ccc1CN1CC(C(=O)O)C1.CCc1cc(/C(C)=N/OCc2ccc(C3CCCCC3)c(C(F)(F)F)c2)ccc1CN1CC(C(=O)O)C1.O=C(O)/C=C/C(=O)O` [crystalline Form A], for which the “HT-XRPD AAC-Amb-dried (solid form after AAC)” value in data set [1] is “Form A”. In data set [2] (DVS, 25° C.), the “mass uptake at 80% RH” value was determined as 2.4%. Further, the “total mass difference between 0-95% RH” value in data set [2] (DVS, 25° C., RH cycle 40-95-0-40%) was 3.6%. Further, the “hygroscopicity according to the EP hygroscopicity classification” value in data set [2] (DVS, based on mass uptake at 80% RH) is reported as “moderately hygroscopic”. For the same compound, the “physical stability after the sorption-desorption cycle (XRPD of solid recovered after DVS)” value in data set [2] (after DVS cycle 40-95-0-40% RH, 25° C.) is “physically stable”.
